The text below walks through data of patent US8598193B2, “Polycyclic agents for the treatment of respiratory syncytial virus infections” (Biota Scientific Management Pty Ltd., priority 2003, dated 2013).

Values after ≈ are worked out from the molar mass of the structure shown. Where two headings read alike, the source gives them in different places.

For test [1], the system named is RSV A2. Description: RSV Balb/c mouse model. The following applies: female Balb/c mice, compound orally 6 hours preinfection, lung RSV titres by plaque assay three days after virus inoculation. In kind it is in vivo. On the procedure: Method T: RSV Balb/c Mouse Model
The mouse model was performed essentially as described by Clanci et al (Antimicrobial Agents and Chemotherapy. 2004, 48, 413). Briefly, eight week old female Balb/c mice were weighed, anesthetized intraperitoneally with Avertin™ and compound or vehicle administered orally 6 hours preinfection. Mice were inoculated intranasally with approximately 10000 TCID50 RSV A2 per animal. Three days after virus inoculation, each mouse was sacrificed and their lungs removed and RSV titres determined by plaque assay.

Test [2] concerns RSV A2. The test is described as follows: RSV cotton rat model. In kind it is in vivo. The settings on record: oral 100 mg/kg/day, lung RSV titres by plaque assay four days after inoculation. The procedure:
Method S: RSV Cotton Rat Model
The cotton rat model was performed essentially as described in the literature (Wyde et al, Antiviral Res. 2003, 60, 221). Briefly, cotton rats weighing 50-100 g were lightly anesthetized with isoflurane and dosed orally with 100 mg/kg/day of compound or vehicle control. Viral infection followed 2 hours post-treatment in similarly anesthetized rats by intranasal instillation with approximately 1000 TCID50 of RSV A2 per animal. Four days after virus inoculation, each cotton rat was sacrificed and their lungs removed and RSV titres determined by plaque assay.

In test [3] the target is T1, RSV A2 F glycoprotein (membrane-anchored full-length F) in 293 cells (Human respiratory syncytial virus A, UniProt P03420).
T1 construct: A membrane-anchored full-length F was generated essentially according to the method described therein; expressed in transfected cells; host or cells: 293 cells
T1 sequence (P03420 26-109): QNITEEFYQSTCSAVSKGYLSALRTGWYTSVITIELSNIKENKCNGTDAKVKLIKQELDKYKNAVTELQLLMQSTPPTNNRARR
T1 sequence (P03420 137-574): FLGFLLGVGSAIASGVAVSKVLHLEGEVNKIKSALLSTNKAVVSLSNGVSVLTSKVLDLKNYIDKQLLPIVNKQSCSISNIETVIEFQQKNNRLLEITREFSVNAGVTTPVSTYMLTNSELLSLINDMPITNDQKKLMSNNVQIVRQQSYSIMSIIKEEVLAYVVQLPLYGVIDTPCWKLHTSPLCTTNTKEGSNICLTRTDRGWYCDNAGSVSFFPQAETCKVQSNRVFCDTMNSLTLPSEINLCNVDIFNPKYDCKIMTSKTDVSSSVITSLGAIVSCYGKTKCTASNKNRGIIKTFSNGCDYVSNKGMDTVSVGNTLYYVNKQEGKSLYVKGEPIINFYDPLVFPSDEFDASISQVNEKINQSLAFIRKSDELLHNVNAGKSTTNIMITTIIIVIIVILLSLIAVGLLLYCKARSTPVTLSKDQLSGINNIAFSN
Description: RSV fusion assay (syncytium formation assay). In kind it is cell-based. On the procedure:
Method R: RSV Fusion Assay
Selected compounds of the invention were tested for their ability to inhibit the essential fusion processes of the respiratory syncytial virus.
Single-stranded synthetic DNA oligonucleotides encoding the portions of RSV A2 F glycoprotein incorporating optimal codons and without potential poly(A) addition or splice sites were generated synthetically (Mason et al, WO0242326). A membrane-anchored full-length F was generated essentially according to the method described therein and in Morton et al, Virology, 2003, 311, 275.
Fusion activity of the RSV-F constructs was measured in 293 cells essentially according to the method described in Morton et al, Virology, 2003, 311, 275. For example: cells in six well plates at approximately 80% confluency were transfected by adding plasmid DNA (2 μg/well) carrying the constructs of interest in CaPO4 solution for 4 hours. After glycerol shock and wash, the transfected cells were trypsinized and 1.5×10^4 cells/well added to 96-well plates containing half-log serial dilutions of the test compound. Syncytium formation was evaluated by visual inspection and quantified at 48 hours post-transfection by addition of 20 μL of CellTiter 96 One Solution (Promega) followed by incubation for 4 hours at 37° C. The colour reaction was then stopped by addition of 25 μL 10% SDS to each well and absorbance measured at 492 nm. The compound concentration that reduced absorbance relative to untreated control cultures by 50% (EC50) was calculated using an Excel curve fitting program.

The subject of test [4] is RSV A2. Description: RSV antiviral cytopathic effect (CPE) assay, MTT readout. In kind it is cell-based. The following applies: human respiratory syncytial virus, HEp-2, 120 h. On the procedure:
Method Q: RSV Antiviral Assay Protocol
Compounds of the invention were tested for their antiviral activity against respiratory syncytial virus. Cytopathic effect (CPE) assays were performed essentially as described in the literature (see for example Watanabe et al, 1. Virological Methods, 1994, 48, 257). Serial dilutions of the test compounds were made in assay medium. HEp2 cells (1.0×10^4 cells/well) were infected with RSV at a low multiplicity of infection (e.g. RSV A2 at an moi of 0.01) and 100 μL added to cultures assessing antiviral activity and cells without virus added to those assessing compound cytotoxicity. Assays were incubated for approximately 5 days at 37° C. in a 5% CO2 atmosphere. The extent of CPE was determined via metabolism of the vital dye 3-(4,5-dimethylthiaxol-2-yl)-2,5-diphenyltetrazolium bromide (MTT). A 3 mg/ml stock of MTT was made in assay medium and 100 μL added to each well, taking the final MTT concentration to […]. After 2 hours incubation at 37° C., the media-MTT solution was removed and 200 μL of isopropanol was added to dissolve the vital dye crystals. Plates were shaken and the absorbance read at 540 nm. The compound concentrations that inhibited CPE by 50% (EC50) and developed cytotoxicity (CC50) were calculated using an Excel curve fitting program.

[5] abbreviates: RSV A2 in HEp2 cells, CPE assay, MTT, approx. 5 days, read-out: Activity Range (RSV A2 antiviral EC50), compounds of Table 3.
The mark [6] stands for this setting: RSV A2 in HEp2 cells, CPE assay, MTT, approx. 5 days, read-out: Activity Range (RSV A2 antiviral EC50), compounds of Table 2.

Broadly, the EC50 is the concentration at which the effect is half-maximal. Regarding `O=C(c1ccc(F)cc1)N1CCN2C(=O)c3ccncc3C12c1ccc(Cl)cc1` (stereo not shown) [Compound 336], the “% Reduction of virus Control” value in the test on RSV A2 [1] is recorded as 80%; in the test with RSV A2 [2] it was 96%. Besides, the EC50 in test [3] was under 1.84 µM; in the test with RSV A2 [4] (setting [5]), 0.1 to 0.25 µg/mL (≈ 0.245 to 0.613 µM). With `O=C(c1ccc(F)cc1)N1CCN2C(=O)c3ccccc3C12c1ccc(Cl)cc1` (stereo not shown) [Compound 12], the EC50 was in the range of 3.69 to 5.53 µM in test [3] and 0.1 to 0.25 µg/mL (≈ 0.246 to 0.614 µM) in the test with RSV A2 [4] (read-out: Activity Range (RSV A2 antiviral EC50), compounds of Table 2). On to `O=C(c1ccc(F)cc1)N1CCN2C(=O)c3cc[n+]([O-])cc3C12c1ccc(Cl)cc1` (stereo not shown) [Compound 352], for which, in the test with RSV A2 [2], the “% Reduction of virus Control” value came to 68%. Also, the concentration for a half-maximal effect (EC50) in the test on RSV A2 [4] (setting [5]) was 0.1 to 0.25 µg/mL (≈ 0.236 to 0.59 µM). In the case of `O=C(c1ccc(F)nc1)N1CCN2C(=O)c3ccccc3C12c1ccc(Cl)cc1` (stereo not shown) [Compound 306], the “% Reduction of virus Control” value in the test with RSV A2 [2] is reported as 72%. Moreover, the EC50 in the test with RSV A2 [4] (setting [6]) is under 0.1 µg/mL. As for `CCC(=O)N1CCN2C(=O)c3ccccc3C12c1ccc(Cl)cc1` (stereo not shown) [Compound 16], the EC50 in test [3] was 2.2 to 4.4 µM. On to `O=C(c1ccc(F)cc1)N1CCN2C(=O)c3ccccc3C12c1ccc(OCCCCl)cc1` (stereo not shown) [Compound 261], for which the EC50 in the test on RSV A2 [4] (setting [6]) lay within 0.1 to 0.25 µg/mL (≈ 0.215 to 0.538 µM). Consider `COc1ccc(-c2ocnc2C(=O)N2CCN3C(=O)c4ccccc4C32c2ccc(Cl)cc2)cc1` (stereo not shown) [Compound 332], for which, in the test with RSV A2 [4] (setting [6]), the concentration for a half-maximal effect (EC50) is under 0.1 µg/mL. Take `CCCc1ccc(C23c4ccccc4C(=O)N2CCN3C(=O)c2ccc(F)cc2)cc1` (stereo not shown) [Compound 200]: the concentration for a half-maximal effect (EC50) in the test with RSV A2 [4] (setting [6]) is under 0.1 µg/mL. For `CC(C)c1nnsc1C(=O)N1CCN2C(=O)c3ccncc3C21c1ccc(Cl)cc1` (stereo not shown) [Compound 464], in the test with RSV A2 [4] (setting [5]), the EC50 is 0.25 to 1 µg/mL (≈ 0.568 to 2.27 µM). For the compound `O=C(c1csnn1)N1CCN2C(=O)c3ccncc3C12c1ccc(Cl)cc1` (stereo not shown) [Compound 456], the EC50 with RSV A2 [4] (setting [5]) is under 0.1 µg/mL. On the same count and under the same terms, the value for `CCCCC#Cc1cncc(C(=O)N2CCN3C(=O)c4ccncc4C23c2ccc(Cl)cc2)c1` (stereo not shown) [Compound 408] was 0.25 to 1 µg/mL (≈ 0.531 to 2.12 µM). On to `O=C(c1ccc(Cl)nc1)N1CCN2C(=O)c3ccccc3C12c1ccc(Cl)cc1` (stereo not shown) [Compound 312], for which, in the test with RSV A2 [4] (setting [6]), the EC50 lay within 0.25 to 1 µg/mL (≈ 0.589 to 2.36 µM). On the same count and under the same terms, to `Cc1ccc(CNC(=O)N2CCN3C(=O)c4ccccc4C23c2ccc(C)cc2)cc1` (stereo not shown) [Compound 178] belongs 0.25 to 1 µg/mL (≈ 0.608 to 2.43 µM); to `O=C(c1ccc(F)cc1)N1CCN2C(=O)c3ccccc3C12c1ccc(OCCCl)cc1` (stereo not shown) [Compound 265], 0.1 to 0.25 µg/mL (≈ 0.222 to 0.554 µM). In the case of `COc1ccc(CC(=O)N2CCN3C(=O)c4ccccc4C23c2ccc(C)cc2)cc1` (stereo not shown) [Compound 66], the EC50 in test [3] lay within 1.82 to 3.64 µM; in the test with RSV A2 [4] (setting [6]) it was 0.1 to 0.25 µg/mL (≈ 0.242 to 0.606 µM). Consider `Cn1cc(C(=O)N2CCN3C(=O)c4ccccc4C32c2ccc(Cl)cc2)c(C(F)(F)F)n1` (stereo not shown) [Compound 333], for which the concentration for a half-maximal effect (EC50) with RSV A2 [4] (setting [6]) was under 0.1 µg/mL. Turning to `C=CCCC(=O)N1CCN2C(=O)c3ccccc3C12c1ccc(Cl)cc1` (stereo not shown) [Compound 250], the EC50 in the test with RSV A2 [4] (setting [6]) lay within 0.25 to 1 µg/mL (≈ 0.681 to 2.73 µM). `CCOc1ccsc1C(=O)N1CCN2C(=O)c3ccncc3C21c1ccc(Cl)cc1` (stereo not shown) [Compound 449]: in the test on RSV A2 [4] (setting [5]), the 50% effective concentration (EC50) was under 0.1 µg/mL. In the case of `COc1ccc(CCC(=O)N2CCN3C(=O)c4ccccc4C23c2ccc(Cl)cc2)cc1` (stereo not shown) [Compound 211], in the test on RSV A2 [4] (setting [6]), the concentration giving a half-maximal response (EC50) is 0.25 to 1 µg/mL (≈ 0.559 to 2.24 µM). Same read-out and setting: to `O=C(c1cccnc1)N1CCN2C(=O)c3ccccc3C12c1ccc(Cl)cc1` (stereo not shown) [Compound 230] belongs under 0.1 µg/mL. On to `O=C(c1ccc(F)nc1)N1CCN2C(=O)c3cnccc3C12c1ccc(Br)cc1` (stereo not shown) [Compound 367], for which the EC50 in the test on RSV A2 [4] (setting [5]) was in the range of 0.25 to 1 µg/mL (≈ 0.552 to 2.21 µM). As to `COc1ccc(NC(=O)N2CCN3C(=O)c4ccccc4C23c2ccc(C)cc2)cc1` (stereo not shown) [Compound 86], the EC50 in the test on RSV A2 [4] (setting [6]) was in the range of 0.1 to 0.25 µg/mL (≈ 0.242 to 0.605 µM). For `COc1c(C(=O)N2CCN3C(=O)c4ccncc4C32c2ccc(Cl)cc2)csc1Br` (stereo not shown) [Compound 438], the concentration giving a half-maximal response (EC50) with RSV A2 [4] (setting [5]) was 0.25 to 1 µg/mL (≈ 0.495 to 1.98 µM). `Cc1csc(C(=O)N2CCN3C(=O)c4ccncc4C32c2ccc(Cl)cc2)c1Cl` (stereo not shown) [Compound 450]: the EC50 in the test with RSV A2 [4] (setting [5]) lay within 0.1 to 0.25 µg/mL (≈ 0.225 to 0.563 µM).

Consider `O=C(c1csnn1)N1CCN2C(=O)c3ccccc3C12c1ccc(Cl)cc1` (stereo not shown) [Compound 243], for which the EC50 in the test on RSV A2 [4] (setting [6]) is under 0.1 µg/mL. Consider `Cc1nc(-c2cnccn2)sc1C(=O)N1CCN2C(=O)c3ccncc3C21c1ccc(Cl)cc1` (stereo not shown) [Compound 458], for which the concentration for a half-maximal effect (EC50) with RSV A2 [4] (setting [5]) was 0.1 to 0.25 µg/mL (≈ 0.205 to 0.511 µM). Turning to `O=C(c1ccc(F)cc1)N1CCN2C(=O)c3ccncc3C12c1ccccc1Cl` (stereo not shown) [Compound 344], in the test with RSV A2 [4] (setting [5]), the concentration for a half-maximal effect (EC50) lay within 0.25 to 1 µg/mL (≈ 0.613 to 2.45 µM).
